Patent publication US7776558B2, “Human G protein-coupled receptor and modulators thereof for the treatment of cell death-related disorders” (Arena Pharmaceuticals, Inc., priority 2003, dated 2010)
Entries after “also recorded” stand apart in the source; their conditions may differ. Where no end group is shown, it is not given here.

Tests used:
FPRL2 [1] = biological target: T1, FPRL2 (Homo sapiens, UniProt P25089); experiment: Whole cell adenylate cyclase (cAMP) assay, stably transfected HEK293 cells; assay type: cell-based; set-up: expressed in transfected cells; settings: in the presence of 5 μM forskolin, FIG. 6
T1 sequence (P25089 1-353): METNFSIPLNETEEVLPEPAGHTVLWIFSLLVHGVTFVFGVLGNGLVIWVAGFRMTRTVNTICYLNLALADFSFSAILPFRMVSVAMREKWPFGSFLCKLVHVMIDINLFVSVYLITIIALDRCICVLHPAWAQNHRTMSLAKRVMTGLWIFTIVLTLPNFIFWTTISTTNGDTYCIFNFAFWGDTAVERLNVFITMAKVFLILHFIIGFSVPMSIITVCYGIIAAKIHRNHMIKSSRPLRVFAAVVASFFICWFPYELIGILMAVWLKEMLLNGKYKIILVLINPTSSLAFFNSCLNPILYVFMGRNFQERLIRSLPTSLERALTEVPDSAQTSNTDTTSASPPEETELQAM
Description: A Flash Plate™ Adenylyl Cyclase kit (New England Nuclear; Cat. No. SMP004A) designed for cell-based assays can be modified for use with crude plasma membranes. The Flash Plate wells can contain a scintillant coating which also contains a specific antibody recognizing cAMP. The cAMP generated in the wells can be quantitated by a direct competition for binding of radioactive cAMP tracer to the cAMP antibody. The following serves as a brief protocol for the measurement of changes in cAMP levels in whole cells that express the receptors.
Transfected cells are harvested approximately twenty four hours after transient transfection. Media is carefully aspirated off and discarded. 10 ml of PBS is gently added to each dish of cells followed by careful aspiration. 1 ml of Sigma cell dissociation buffer and 3 ml of PBS are added to each plate. Cells are pipetted off the plate and the cell suspension is collected into a 50 ml conical centrifuge tube. Cells are then centrifuged at room temperature at 1,100 rpm for 5 min. The cell pellet is carefully re-suspended into an appropriate volume of PBS (about 3 ml/plate). The cells are then counted using a hemocytometer and additional PBS is added to give the appropriate number of cells (with a final volume of about 50 μl/well).
cAMP standards and Detection Buffer (comprising 1 μCi of tracer [^125I cAMP (50 μl] to 11 ml Detection Buffer) is prepared and maintained in accordance with the manufacturer's instructions. Assay Buffer is prepared fresh for screening and contains 50 μl of Stimulation Buffer, 3 ul of test compound (12 μM final assay concentration) and 50 μl cells, Assay Buffer is stored on ice until utilized. The assay is initiated by addition of 50 μl of cAMP standards to appropriate wells followed by addition of 50 ul of PBSA to wells H-11 and H12. 50 μl of Stimulation Buffer is added to all wells. DMSO (or selected candidate compounds) is added to appropriate wells using a pin tool capable of dispensing 3 μl of compound solution, with a final assay concentration of 12 μM test compound and 100 μl total assay volume. The cells are then added to the wells and incubated for 60 min at room temperature. 100 μl of Detection Mix containing tracer cAMP is then added to the wells. Plates are then incubated additional 2 hours followed by counting in a Wallac MicroBeta scintillation counter. Values of cAMP/well are then extrapolated from a standard cAMP curve which is contained within each assay plate.
In FIG. 6, agonist activity was determined through adenylate cyclase activity. […] Samples were then assessed for the level of intracellular cAMP as described in Example 4, supra.

FPRL2 [2] = biological target: T1, FPRL2; experiment: IP3 assay, HEK293 cells transiently transfected with FPRL2 and Gα16; assay type: cell-based; set-up: expressed in transfected cells; host or cells: HEK293 cells, transient, lipofectamine; settings: FIG. 8
Method: On day 1, cells comprising the receptors (endogenous and/or non-endogenous) can be plated onto 24 well plates, usually 1×10^5 cells/well (although his umber can be optimized. On day 2 cells can be transfected by firstly mixing 0.25 μg DNA in 50 μl serum free DMEM/well and 2 μl lipofectamine in 50 μl serum free DMEM/well. The solutions are gently mixed and incubated for 15-30 min at room temperature. Cells are washed with 0.5 ml PBS and 400 μl of serum free media is mixed with the transfection media and added to the cells. The cells are then incubated for 3-4 […] at 37° C./5% CO2 and then the transfection media is removed and replaced with 1 ml/well of regular growth media. On day 3 the cells are labeled with ^3H-myo-inositol. Briefly, the media is removed and the cells are washed with 0.5 ml PBS. Then 0.5 ml inositol-free/serum free media (GIBCO BRL) is added/well with 0.25 μCi of ^3H-myo-inositol/well and the cells are incubated for 16-18 hrs o/n at 37° C./5% CO2. On Day 4 the cells are washed with 0.5 ml PBS and 0.45 ml of assay medium is added containing inositol-free/serum free media 10 μM pargyline 10 mM lithium chloride or 0.4 ml of assay medium and 50 μl of 10× ketanserin (ket) to final concentration of 10 μM. The cells are then incubated for 30 min at 37° C. The cells are then washed with 0.5 ml PBS and 200 μl of fresh/ice cold stop solution (1M KOH; 18 mM Na-borate; 3.8 mM EDTA) is added/well. The solution is kept on ice for 5-10 min or until cells were lysed and then neutralized by 200 μl of fresh/ice cold neutralization sol. (7.5% HCL). The lysate is then transferred into 1.5 ml eppendorf tubes and 1 ml of chloroform/methanol (1:2) is added/tube. The solution is vortexed for 15 sec and the upper phase is applied to a Biorad AG1-X8™ anion exchange resin (100-200 mesh). […]
Briefly, HEK293 cells were transiently transfected with 6 μg FPRL2 plasmid DNA and 6 μg Gα16 plasmid DNA per 10^7 cells per 15 cm culture dish using lipofectamine (Invitrogen). […] The level of intracellular IP3 was determined as described in Example 4, supra.

neuronal cells = settings: cited from earlier work

Compound	Agonist activity at FPRL2, intracellular cAMP (FPRL2 [1])	Level of intracellular IP3 (FPRL2 coupling to Gα16) (FPRL2 [2])	Activity relative to Humanin (neuronal cells; Niikura et al. 2002)	Agonist activity at FPRL2, intracellular cAMP (FPRL2 [1]; listed as Human)	Protection of neuronal cells from toxic insults (neuronal cells; Alzheimer's disease-relevant toxicity, three mutant FAD genes and Aβ)	Rescue of cortical neurons from prion-peptide-induced apoptosis (neuronal cells; Sponne et al. 2004)	Protective activity for neurons against serum deprivation (neuronal cells; Takahashi et al. 2002)
CC(C)c1ccc2c(c1)CCC1C(C)(C(N)=O)CCCC21C (centres unmarked) [Compound 1, 7-Isopropyl-1,4a-dimethyl-1,2,3,4,4a,9,10,10a-octahydro-phenanthrene-1-carboxylic acid amide]	selectively an agonist of FPRL2	dose-dependent elevation of the level of intracellular IP3					
MAPRGFSCLLLLTGEIDLPVKRRA [[Gly14]-Humanin]	agonists of both FPRL1 and FPRL2; also recorded: agonists of both FPRL2 and FPRL1	dose-dependent elevation of the level of intracellular IP3	significantly more active than Humanin				
CC[C@H](C)[C@H](NC(=O)[C@H](CCC(=O)O)NC(=O)[C@H](CO)NC(=O)[C@@H](NC(=O)[C@H](CC(C)C)NC(=O)[C@H](CC(C)C)NC(=O)[C@H](CC(C)C)NC(=O)[C@H](CC(C)C)NC(=O)[C@H](CS)NC(=O)[C@H](CO)NC(=O)[C@H](Cc1ccccc1)NC(=O)CNC(=O)[C@H](CCCNC(=N)N)NC(=O)[C@@H]1CCCN1C(=O)[C@H](C)NC(=O)[C@@H](N)CCSC)[C@@H](C)O)C(=O)N[C@@H](CC(=O)O)C(=O)N[C@@H](CC(C)C)C(=O)N1CCC[C@H]1C(=O)N[C@H](C(=O)N[C@@H](CCCCN)C(=O)N[C@@H](CCCNC(=N)N)C(=O)N[C@@H](CCCNC(=N)N)C(=O)N[C@@H](C)C(=O)O)C(C)C [Humanin]	agonists of both FPRL1 and FPRL2	dose-dependent elevation of the level of intracellular IP3		agonists of both FPRL2 and FPRL1	protect neuronal cells from Alzheimer's disease-relevant toxicity; also recorded: protect neuronal cells from a number of toxic insults	rescue cortical neurons from prion-peptide-induced apoptosis	protective activity for neurons against serum deprivation
